Patent US9328374B2, “Selective culture medium and method for detecting carbapenem-resistant bacteria in a test sample” (Institut National de la Sante et de la Recherche Medicale …, priority 2011, dated 2016)
Like-named read-outs stand apart in the source and are kept apart here.

Key:
S. typhimurium = assay: MIC of imipenem, ertapenem and meropenem; type: cell-based
enterobacterial isolates = assay: MIC of imipenem, ertapenem and meropenem (groups of isolates, other species); type: cell-based, Enterobacteriaceae
C. freundii = assay: MIC of imipenem, ertapenem and meropenem; type: cell-based, Citrobacter freundii
E. cloacae = assay: MIC of imipenem, ertapenem and meropenem; type: cell-based, Enterobacter cloacae; conditions: Enterobacter cloacae, read-out: MIC
E. aerogenes = assay: MIC of imipenem, ertapenem and meropenem; type: cell-based, Enterobacter aerogenes; conditions: Klebsiella aerogenes, read-out: MIC

Compound: C[C@@H](O)[C@H]1C(=O)N2C(C(=O)O)=C(S[C@@H]3CN[C@H](C(=O)Nc4cccc(C(=O)O)c4)C3)[C@H](C)[C@H]12 [ETP, ertapenem]
- MIC (S. typhimurium; S. typhimurium 1081 (CTX-M-1)): 0.19 µg/mL
- MIC (S. typhimurium; Salmonella enterica, S. typhimurium 1081, CTX-M-1, non-carbapenemase producer, read-out: MIC): 0.19 µg/mL
- MIC (S. typhimurium; strain S. typhimurium 1081, CTX-M-1, non-carbapenemase producer): 0.19 µg/mL
- MIC (enterobacterial isolates; Example 3, 19 isolates (1 Citrobacter freundii, 2 E. coli, 4 E. cloacae, 12 K. pneumoniae) with porin defect, read-out: MIC values of ertapenem of ertapenem non-susceptible isolates): > 0.25 µg/mL
- MIC (enterobacterial isolates; S. marcescens 0911033, IMP-1): >32 µg/mL
- MIC (enterobacterial isolates; S. marcescens 1008091, VIM-1+ CTX-M-15): >32 µg/mL
- MIC (enterobacterial isolates; S. marcescens C7052, KPC-2 + TEM-1 + SHV-12): >32 µg/mL
- MIC (enterobacterial isolates; Serratia marcescens, S. marcescens D6403, KPC-2 + TEM-1, read-out: MIC): > 32 µg/mL
- MIC (C. freundii; C. freundii MAU, Overexpressed AmpC + TEM-3, non-carbapenemase producer): 8 µg/mL
- MIC (C. freundii; Citrobacter freundii, C. freundii 1003, CTX-M-15 + TEM-1, non-carbapenemase producer, read-out: MIC): 0.016 µg/mL
- MIC (C. freundii; Citrobacter freundii, C. freundii 7767 (wild type), read-out: MIC): 0.008 µg/mL
- MIC (C. freundii; Citrobacter freundii, C. freundii 7767, (wild type), non-carbapenemase producer, read-out: MIC): 0.008 µg/mL
- MIC (C. freundii; Citrobacter freundii, C. freundii 10107 (TEM-1 + SHV-12), read-out: MIC): 0.016 µg/mL
- MIC (C. freundii; Citrobacter freundii, C. freundii 10107, TEM-1 + SHV-12, non-carbapenemase producer, read-out: MIC): 0.016 µg/mL
- MIC (C. freundii; Citrobacter freundii, C. freundii 10135 (CTX-M-15), read-out: MIC): 0.016 µg/mL
- MIC (C. freundii; Citrobacter freundii, C. freundii 10135, CTX-M-15, non-carbapenemase producer, read-out: MIC): 0.016 µg/mL
- MIC (C. freundii; Citrobacter freundii, C. freundii STE (NDM-1 + OXA-1 + OXA-9 + OXA-10 + CTX-M-15 + TEM-1), read-out: MIC): > 32 µg/mL
- MIC (C. freundii; Citrobacter freundii, C. freundii STE, NDM-1 + TEM-1 + CTX-M-15 + VIM-4 + OXA-1 + OXA-9 + OXA-10 + OXA-181, read-out: MIC): > 32 µg/mL
- MIC (C. freundii; Citrobacter freundii, strain C. freundii 10107, TEM-1 + SHV-12, non-carbapenemase producer, read-out: MIC): 0.016 µg/mL
- MIC (C. freundii; Citrobacter freundii, strain C. freundii 10135, CTX-M-15, non-carbapenemase producer, read-out: MIC): 0.016 µg/mL
- MIC (C. freundii; strain C. freundii MAU, Overexpressed AmpC + TEM-3, non-carbapenemase producer): 8 µg/mL
- MIC (E. cloacae; E. cloacae 501, OXA-48 + TEM-1 + CTX-M-15): 16 µg/mL
- MIC (E. cloacae; E. cloacae 1012, TEM-1 + SHV-12, non-carbapenemase producer): 0.016 µg/mL
- MIC (E. cloacae; E. cloacae 1027, TEM-1 + CTX-M-15, non-carbapenemase producer): 0.016 µg/mL
- MIC (E. cloacae; E. cloacae 5434 (wild type)): 0.016 µg/mL
- MIC (E. cloacae; E. cloacae 5434, (wild type), non-carbapenemase producer): 0.016 µg/mL
- MIC (E. cloacae; E. cloacae 7725, (wild type), non-carbapenemase producer): 0.008 µg/mL
- MIC (E. cloacae; E. cloacae 7746, (wild type), non-carbapenemase producer): 0.064 µg/mL
- MIC (E. cloacae; E. cloacae 10111 (TEM-1 + CTX-M-15)): 0.75 µg/mL
- MIC (E. cloacae; E. cloacae 1008029, VIM-1+ CTX-M-3): > 32 µg/mL
- MIC (E. cloacae; E. cloacae 1008079, IMP-1): > 32 µg/mL
- MIC (E. cloacae; E. cloacae 1008187, IMP-1 + CTX-M-15): > 32 µg/mL
- MIC (E. cloacae; E. cloacae (KPC-2)): 6 µg/mL
- MIC (E. cloacae; E. cloacae BEU, OXA-48 + TEM-1 + CTX-M-15 + SHV-12): 8 µg/mL
- MIC (E. cloacae; E. cloacae CFVL, KPC-2 + TEM-3): 2 µg/mL
- MIC (E. cloacae; E. cloacae CLO (CTX-M-15)): 0.12 µg/mL
- MIC (E. cloacae; E. cloacae CLO, CTX-M-15, non-carbapenemase producer): 0.12 µg/mL
- MIC (E. cloacae; E. cloacae CVB (VEB-1)): 0.12 µg/mL
- MIC (E. cloacae; E. cloacae CVB, VEB-1, non-carbapenemase producer): 0.12 µg/mL
- MIC (E. cloacae; E. cloacae HMG, KPC-2 + TEM-1): > 32 µg/mL
- MIC (E. cloacae; E. cloacae HPTU (KPC-2 + TEM-1 + SHV-11)): 4 µg/mL
- MIC (E. cloacae; E. cloacae HPTU, KPC-2 + TEM-1 + SHV-11): 4 µg/mL
- MIC (E. cloacae; E. cloacae IR38 (NDM-1 + CTX-M-15)): 16 µg/mL
- MIC (E. cloacae; E. cloacae IR38, NDM-1 + CTX-M-15): 16 µg/mL
- MIC (E. cloacae; E. cloacae KAR, VIM-1+ SHV-70): 0.38 µg/mL
- MIC (E. cloacae; E. cloacae TAW (IMP-8 + SHV-12)): 0.5 µg/mL
- MIC (E. cloacae; E. cloacae TAW, IMP-8 + SHV-12): 0.5 µg/mL
- MIC (E. cloacae; E. cloacae TUR (OXA-48 + SHV-5)): 0.5 µg/mL
- MIC (E. cloacae; E. cloacae TUR, OXA-48 + SHV-5): 0.5 µg/mL
- MIC (E. cloacae; E. cloacae TWA, IMP-8): 1 µg/mL
- MIC (E. cloacae; strain E. cloacae 10111, TEM-1 + CTX-M-15, non-carbapenemase producer): 0.75 µg/mL
- MIC (E. cloacae; strain E. cloacae CLO, CTX-M-15, non-carbapenemase producer): 0.12 µg/mL
- MIC (E. cloacae; strain E. cloacae CVB, VEB-1, non-carbapenemase producer): 0.12 µg/mL
- MIC (E. cloacae; strain E. cloacae HPTU, KPC-2 + TEM-1 + SHV-11): 4 µg/mL
- MIC (E. cloacae; strain E. cloacae TAW, IMP-8 + SHV-12): 0.5 µg/mL
- MIC (E. cloacae; strain E. cloacae TUR, OXA-48 + SHV-5): 0.5 µg/mL
- MIC (E. aerogenes; E. aerogenes 1009, TEM-24, non-carbapenemase producer): 0.12 µg/mL
- MIC (E. aerogenes; E. aerogenes 1085 (TEM-24)): 0.19 µg/mL
- MIC (E. aerogenes; E. aerogenes 1085, TEM-24, non-carbapenemase producer): 0.19 µg/mL
- MIC (E. aerogenes; strain E. aerogenes 1085, TEM-24, non-carbapenemase producer): 0.19 µg/mL
